Values after ≈ are worked out from the molar mass of the structure shown. Read-outs that look alike come from different tables or passages of the source.
Legend:
melanoma B-16 = assay: Antitumor therapeutic test in mice, melanoma B-16 (NCI protocol), life span prolongation; type: in vivo; conditions: intraperitoneally once daily for 9 consecutive days
Description: (§1) Therapeutic tests were carried out in mice according to NCI-protocols 1,200 and 1,300, Cancer Chemother, Reports, Part 3, 1972, Vol.3, No.2, in which leukemia P-388 and melanoma B-16 tumor cells had been intraperitoneally transplanted, compound (I) being administered intraperitoneally once daily for 9 consecutive days.

leukemia P-388 = assay: Antitumor therapeutic test in mice, leukemia P-388 (NCI protocol), life span prolongation; type: in vivo; conditions: intraperitoneally once daily for 9 consecutive days
Description: as §1

Tetrahymena pyriformis W = assay: Antiprotozoal activity, growth inhibition by serial dilution method; type: cell-based; conditions: read-out: Antiprotozoal activity MIC (μg/ml) Tetrahymena pyriformis W
Description: Antiprotozoal activity of compound (I) was assayed with Tetrahymena pyriformis W as the test organism and a medium composed of 20 g tryptose-peptone (Difoo Cc.), 1 g; yeast extract, 2 g glucose, 1000 mℓ distilled water, 10 mℓ IM phosphate buffer (pH 7.0) as the assay medium. The microorganism was incubated at 28°C for 44 to 48 hours and the growth inhibitory activity of compound (I) was assayed by the serial dilution method.

| Compound | Antitumor activities B-16 (T/C %) (melanoma B-16; Dose 100 µg/kg) | Antitumor activities B-16 (T/C %) (melanoma B-16; Dose 200 µg/kg) | Antitumor activities B-16 (T/C %) (melanoma B-16; Dose 400 µg/kg) | Antitumor activities B-16 (T/C %) (melanoma B-16; Dose 800 µg/kg) | Antitumor activities P-388 (T/C %) (leukemia P-388; Dose 50 µg/kg) | Antitumor activities P-388 (T/C %) (leukemia P-388; Dose 100 µg/kg) | Antitumor activities P-388 (T/C %) (leukemia P-388; Dose 200 µg/kg) | Antitumor activities P-388 (T/C %) (leukemia P-388; Dose 400 µg/kg) | MIC (Tetrahymena pyriformis W) [µg/mL] | MIC (Tetrahymena pyriformis W; incubated at 28°C for 44 to 48 hours, serial dilution method) [µg/mL] |
| --- | --- | --- | --- | --- | --- | --- | --- | --- | --- | --- |
| COc1cc2cc(c1)N(C)C(=O)CC(OC(=O)C(C)C)C1(C)OC1C(C)C1CC(O)(NC(=O)O1)C(OC)/C=C/C=C(\C)C2 (stereo not shown) [Dechloromaytansinol 3-isobutyrate, dechloromaytansinol 3-isobutyrate] | 150 | 152 | 174 | 214 | 168 | 189 | 193 | 224 |  |  |
| COc1cc2cc(c1)N(C)C(=O)CC(OC(=O)CCl)C1(C)OC1C(C)C1CC(O)(NC(=O)O1)C(OC)/C=C/C=C(\C)C2 (stereo not shown) [Dechloromaytansinol 3-chloroacetate, dechloromaytansinol 3-chloroacetate] |  |  |  |  |  |  |  |  | ≥ 4 |  |
| COc1cc2cc(c1)N(C)C(=O)CC(OC(=O)C1CCCCC1)C1(C)OC1C(C)C1CC(O)(NC(=O)O1)C(OC)/C=C/C=C(\C)C2 (stereo not shown) [dechloromaytansinol 3-cyclohexanecarboxylate] |  |  |  |  |  |  |  |  | 4 (≈ 6.24 µM) |  |
| COc1cc2cc(c1)N(C)C(=O)CC(OC(=O)Cc1ccccc1)C1(C)OC1C(C)C1CC(O)(NC(=O)O1)C(OC)/C=C/C=C(\C)C2 (stereo not shown) [Dechloromaytansinol 3-phenylacetate, dechloromaytansinol 3-phenylacetate] |  |  |  |  |  |  |  |  |  | 2 (≈ 3.08 µM) |
| dechloromaytansine | 171 | 152 | 179 | 190 | 158 | 165 | 175 | 189 |  |  |

— EP0011277A1, “Dechloromaytansinoids, their production and use and pharmaceutical compositions containing them” (priority 1978, dated 1980)
